Experimental data as given in US20220062166A1, “Self-Gelling Solutions for Administration of Therapeutics to the Inner Ear” (Spiral Therapeutics, Inc., priority 2019, published 2022).

Assays:
A549 cells = assay: Proliferation of non-apoptotic A549 cells (flow cytometry, doubling time); assay type: cell-based; conditions: A549 cells cultured up to 6 days; reversible on removal
Method: The effect of LPT99 on proliferation of non-apoptotic cells was studied. A549 cells were cultured in the presence of LPT99 for up to 6 days; the cell number was monitored by flow cytometry, and doubling time was calculated.

[1] = system: panel of receptors (44 GPCR and 4 non-GPCR), 4 ion channels, and 3 transporters; assay: Off-target selectivity panel; assay type: binding; conditions: 10 μM
Method: (§1) To identify off-target activities of LPT99, its selectivity against a panel of receptors (44 G-protein-coupled receptors [GPCR] and 4 non-GPCR), 4 ion channels, and 3 transporters were analyzed. The cell line, HEI-OC1 (house ear institute organ of Corti 1), which expresses several characteristic markers of the organ of Corti sensory cells (Kalinec, et al. , Audiol. Neurootol. 2003, 8(4), 177-89), was used to evaluate the efficacy of LPT99 in preventing apoptosis due to […]. Cells were pre-incubated with LPT99, followed by […] for 24 hours.
(§2) For 14 of the tested targets—adenosine receptor 3 (A3); cholecystokinin: cholecystokinin receptor 1 (CCK1); melatonin receptor (MT1); neurokinin (NK2 and NK3); opioid (kOP and mOP); serotonin receptors (5HT-1A, 5HT-2A, 5HT−2B and 5HT−7); and vasopressin (V1A; Na+channel site 2 and Cl-GABA-gated channel)—the LPT99 affinity was >50%. At 1 μM, the inhibition of 13 of these targets was <50%, indicating a very low affinity with LPT99.

opioid kOP = assay: Off-target panel: kOP; assay type: binding
Method: as §1, §2

Cl-GABA-gated channel = assay: Off-target panel: Cl- GABA-gated channel; assay type: binding
Method: as §1, §2

[2] = system: CisPt-induced hearing loss; assay: Model of CisPt-induced hearing loss in rats (TT administration); assay type: in vivo, rat; conditions: TT administration of LPT99 in hydrogel, dose dependent
Method: The protective effect of LPT99 was evaluated 3 days […] administration by functional measures, such as auditory brainstem response (ABR) threshold shift, DPOAE, and expression of biomarkers of apoptosis in cochlea and cytocochleograms.

[3] = system: noise-induced ABR threshold shift; assay: Noise trauma ABR threshold study; assay type: in vivo; conditions: at 10 and 21 days; TRAUMA+LPT99 group
hERG = target: T1, hERG (Homo sapiens, UniProt Q12809); assay: hERG automated patch clamp assay in hERG-CHO cells; assay type: cell-based; conditions: detection limit 3.2 nM
T1 construct: expressed in transfected cells; host or cells: CHO
T1 sequence (Q12809 whole entry): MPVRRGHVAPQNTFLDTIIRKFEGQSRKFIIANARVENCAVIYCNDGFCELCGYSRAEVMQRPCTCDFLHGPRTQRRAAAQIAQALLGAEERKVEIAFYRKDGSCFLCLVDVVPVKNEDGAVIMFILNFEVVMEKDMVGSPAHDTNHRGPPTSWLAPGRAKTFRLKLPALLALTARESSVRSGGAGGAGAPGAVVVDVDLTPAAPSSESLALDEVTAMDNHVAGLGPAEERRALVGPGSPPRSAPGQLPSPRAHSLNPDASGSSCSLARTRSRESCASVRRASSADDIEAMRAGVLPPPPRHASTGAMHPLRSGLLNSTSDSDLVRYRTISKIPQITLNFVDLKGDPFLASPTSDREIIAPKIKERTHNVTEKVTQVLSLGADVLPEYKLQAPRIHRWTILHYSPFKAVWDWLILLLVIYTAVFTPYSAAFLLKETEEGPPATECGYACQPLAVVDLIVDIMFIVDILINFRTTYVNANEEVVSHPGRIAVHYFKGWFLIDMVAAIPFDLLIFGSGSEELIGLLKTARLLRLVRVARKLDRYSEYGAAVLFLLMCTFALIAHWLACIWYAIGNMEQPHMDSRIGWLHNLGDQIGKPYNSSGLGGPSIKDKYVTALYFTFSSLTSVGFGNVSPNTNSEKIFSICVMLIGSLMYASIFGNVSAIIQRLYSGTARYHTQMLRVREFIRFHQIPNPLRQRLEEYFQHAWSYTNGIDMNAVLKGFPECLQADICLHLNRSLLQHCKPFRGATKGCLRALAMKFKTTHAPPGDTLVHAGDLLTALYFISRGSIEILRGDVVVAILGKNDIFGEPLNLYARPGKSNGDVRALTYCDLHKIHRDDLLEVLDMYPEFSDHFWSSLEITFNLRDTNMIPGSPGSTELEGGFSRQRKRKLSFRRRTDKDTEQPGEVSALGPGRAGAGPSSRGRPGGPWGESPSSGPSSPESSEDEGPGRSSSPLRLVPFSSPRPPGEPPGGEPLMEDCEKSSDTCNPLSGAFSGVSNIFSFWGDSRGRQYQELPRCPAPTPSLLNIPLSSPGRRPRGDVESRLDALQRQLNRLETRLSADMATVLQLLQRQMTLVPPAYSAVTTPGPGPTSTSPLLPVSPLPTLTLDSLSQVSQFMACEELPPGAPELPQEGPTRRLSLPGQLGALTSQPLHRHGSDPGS
Excerpt: The potential cardiotoxicity of LPT99 was investigated in an assay using the hERG-CHO cells transfected with the automated patch clamp assay.

[4] = GLP acute systemic toxicity study, single IP dose, Sprague-Dawley rats; assay type: in vivo, rat
Method: A GLP acute systemic toxicity study was conducted with LPT99 administered via IP injection in Sprague-Dawley rats. The acute systemic toxicity study was preceded by a non-GLP maximum tolerated dose (MTD) toxicity study, via the same administration and test system, which determined the MTD of LTP99 to be 1000 mg/kg.
(§3) LPT99 was suspended in vehicle [0.5% w/v methylcellulose and 0.1% v/v TWEEN® 80 in Milli-Q water] and administered intraperitoneally to Sprague-Dawley rats as a single dose at the doses of 100 (low—G2/G2TK), 300 (mid—G3/G3TK), and 750 (high—G4/G4TK) mg/kg body weight. The rats in vehicle control groups (G1/G1TK) received the vehicle alone. The dose volume administered was at an equivolume of 10 mL/kg body weight for all groups.
(§4) The main toxicity groups consist of 15 rats/sex/group in G1 and G4 groups and 10 rats/sex/group in G2 and G3 groups. The toxicokinetic groups consisted of 6 males and 6 female rats each for the prevention groups, whereas the vehicle control group had 3 male and 3 female rats.

[5] = Toxicokinetic assessment in the acute IP toxicity study; assay type: in vivo, rat; conditions: all tested dose levels
Method: as §3, §4
Gender related differences were observed.

[6] = system: BALB/c 3T3 mouse fibroblasts; assay: In vitro phototoxicity in BALB/c 3T3 mouse fibroblasts; assay type: cell-based; conditions: ≤100 μM
Method: An in vitro experiment was performed in BALB/c 3T3 mouse fibroblasts to determine the phototoxic potential of LPT99 at concentrations of ≤100 μM in 3T3L1 cells.

[7] = GLP dermal sensitization main study (Buehler test) in guinea pigs; assay type: in vivo, guinea pig; conditions: 24 or 48 hours after the challenge dose, 797 μM
Method: A GLP-compliant dermal sensitization study was conducted with LPT99 in guinea pigs. The objective was to assess potential dermal sensitization of LPT99 using the Buehler test (Buehler, Arch Dermatol. 1965, 91, 171-7). The test article, LPT99, was in a neutral-pH, buffered, isotonic solution containing a thermoreversible compound. The vehicle control was buffered at neutral pH and formulated as for the test article; it contained POLOXAMER® 407, disodium phosphate dodecahydrate hydrogen, sodium dihydrogen phosphate dihydrate, sodium chloride, and water for injection. The main study consisted of 2 groups of 20 or 10 guinea pigs. Group 1 was 10 male and 10 female guinea pigs dosed with the highest concentration of LPT99, 797 μM, that was used in the dose range-finding substudy (Group 1). Group 2 was 5 male and 5 female animals that were not dosed with LPT99 (Group 2) during the induction phase and served as naïve controls; Group 2 was challenged with LPT99 on Day 28. LPT99 was topically administered to the skin in the shaved scapula area in a volume of 50 μL on Study Days 0, 7, and 14 (induction doses), and on Day 28 (challenge dose). […] The PDII (post-challenge) was calculated for the test article or vehicle by dividing the sum of the Total Irritation Score by the number of observations (e.g., 3 days×6 animals=18 (number of observations).

For COc1ccc2[nH]cc(CCNC(=O)CC3C(=O)N(CCc4ccc(Cl)cc4Cl)CC(=O)N3CCc3cccs3)c2c1 (centres unmarked) [LPT99, 2-(4-(2,4-dichlorophenethyl)-3,6-dioxo-1-(2-(thiophen-2-yl)ethyl)piperazin-2-yl)-N-(2-(5-methoxy-1H-indol-3-yl)ethyl)acetamide], the “effect on proliferation of non-apoptotic cells” value (A549 cells) was “delayed cellular proliferation by accumulation of cells at the G1 phase of the cell cycle”, the “in vitro inhibition for 41 of the tested targets” value [1] was under 50% and the “inhibition kOP” value (opioid kOP; 1 μM) was under 50%. For the same compound, the “affinity (inhibition) kOP” value (opioid kOP; 10 μM) was over 50%, the “inhibition Cl-GABA-gated channel” value (Cl-GABA-gated channel; 1 μM) was under 50% and the “affinity (inhibition) Cl-GABA-gated channel” value (Cl-GABA-gated channel; 10 μM) was over 50%. The “protection against CisPt-induced hearing loss vs vehicle control” value [2] was “protected against CisPt-induced hearing loss”, the “ABR Threshold shift after noise exposure” value [3] was “back at basal levels” and the “safety margin (hERG IC50 vs plasma detection limit)” value (hERG) was over 1063. For the same compound, the food consumption ([4]; 750 mg/kg, males days 1-7, females days 1-4, vs control) was “statistically significant reduction in the food consumption”, the tolerability ([4]; single IP 100, 300, 750 mg/kg) was “generally safe and well tolerated” and the “exposure in females vs males” value [5] was 1.5-5.5 fold. The “cytotoxicity in presence or absence of ultraviolet-visible irradiation” value [6] was “not cytotoxic” and the Draize scores [7] was “No Draize scores were >0”.
